# Laboratory results: EP1980561B1, “Substituted 1h-pyrazolo[3,4-b] pyridine derivatives active as kinase inhibitors” (NERVIANO MEDICAL SCIENCES S.R.L., priority 2007, dated 2008)
# Like-named read-outs stand apart in the source and are kept apart here.
# Assays:
# AKT3 = AKT3 (Homo sapiens, UniProt Q9Y243); experiment: Biochemical assay for inhibitors of AKT3 kinase activity (33P trans-phosphorylation, Dowex resin)
# Experimental: The N-terminal GST fusion proteins used for the assays were prepared according to the methods described in Kumar, C. C. Biochem. Biophys. ACTA 2001, 1526, 257-268, and in Alessi, D. R.. Biochem. J. 1998 331, 299-308. The in vitro kinase inhibition assay was conducted in the same way as described for AKT1. The kinase assay was run with a final enzyme concentration of 1 nM, in the presence of 180 microM ATP, 0.88 nM ^33P-γ-ATP and 28.5 microM substrate, a carboxy-terminally biotinylated peptide of the following sequence: ARKRERTYSFGHHA-biotin. The peptide was obtained in batches of >95% peptide purity from PRIMM labs Inc. (Boston MA, USA).
# [1] = system: S6 ribosomal protein phosphorylation (Ser235/236) in MCF-7 cells; experiment: Inhibition of AKT induced S6 ribosomal protein phosphorylation in MCF7 (immunofluorescence, ArrayScan); format: cell-based; settings: Homo sapiens, compound treatment for 4 hour at 37°C, read-out: S6 phosphorylation (Ser235/236) in MCF7-cell IC50
# Experimental: MCF-7 cells (ATCC# HTB-22) were seeded in 96-well poly-lysine coated clear- and flat-bottomed black plates (Matrix Technologies Inc., Hudson, NH, USA), in E-MEM medium (MEM+ Earle's BSS + 2 mM glutamine + 0.1 mM non-essential amino acids) containing 10% of FCS at a density of 7000 cells/well, and incubated overnight at 37°C, 5% CO2, 100% relative humidity. After this incubation, cells were treated with increasing compound doses for 4 hour at 37°C. Afterwards, cells were fixed with PBS/3.7% paraformaldehyde for 15 min at room temperature, wash twice with 200 µl/well D-PBS and permeabilize with a D-PBS solution containing 0.1% Triton X-100 (Sigma-Aldrich, St. Louis, MO, USA) and 0.1% powder Milk for 15 minutes (staining solution). […] Fluorescence images in the DAPI and Cy5™ channels were automatically acquired, stored and analysed using a Cellomics ArrayScan™ IV instrument (Cellomics, Pittsburgh, USA); the Cellomics Cytotoxicity Algorithm was used to quantify cytoplasmic fluorescence associated with phospho-S6 (Cy5™ signal parameter: "Mean Lyso Mass-pH") for each cell in 10 fields/well, and eventually expressed as a mean population value. […]
# AKT2 = target: T1, AKT2 (Homo sapiens, UniProt P31751); experiment: Biochemical assay for inhibitors of AKT2 kinase activity (33P trans-phosphorylation, Dowex resin); settings: 10 nM enzyme, 396 microM ATP, 8.5 microM peptide substrate
# T1 construct: GST (N); made in house
# Experimental: (§1) The N-terminal GST fusion proteins used for the assays were prepared according to the methods described in Kumar, C. C. Biochem. Biophys. ACTA 2001, 1526, 257-268, and in Alessi, D. R.. Biochem. J. 1998 331, 299-308.
# The in vitro kinase inhibition assay was conducted in the same way as described for AKT1. The kinase assay was run with a final enzyme concentration of 10 nM, in the presence of 396 microM ATP, 0.88 nM ^33P-γ-ATP and 8.5 microM substrate, a carboxy-terminally biotinylated peptide of the following sequence:
# ARKRERTYSFGHHA-biotin. The peptide was obtained in batches of >95% peptide purity from PRIMM labs Inc. (Boston MA, USA).
# PKAα = target: T2, PKAα (Homo sapiens, UniProt P17612); experiment: FABS-NMR screening (3-FABS, 19F-labelled AKTide-like substrate) on PKA; format: biochemical; settings: 25 nM protein, 30 µM substrate, 150 µM ATP
# T2 construct: polyHis; made in house; host or cells: E. coli
# Experimental: (§2) The biochemical functional NMR screening on the proteins kinase AKT-1 and PKA was performed using the 3-FABS (3-Fluorine Atoms for Biochemical Screening) technique developed by C. Dalvit and the NMR group in house (C. Dalvit et al 2003 J. Am. Chem. Soc. 125 (47): 14620).
# (§3) The method require the use of a ^19F-labelled substrate. The same commercial peptide was used as substrate in both enzymatic reaction: the Tyr just before the phosphorilation site in the AKTide peptide was mutated in a 3-tryfluormethyl-Phe by Bachem.
# (§4) The AKTide like peptide sequence is reported below: • H-Ala-Arg-Lys-Arg-Glu-Arg-Ala-Phe(3-CF3)-Ser-Phe-Gly-His-His-Ala-OH
# The active cycled AMP-dependent human protein kinase A PKA was expressed as polyHis-tag protein in E.Coli and purified by affinity column.
# (§5) Reactions were performed in an end point format in eppendorf of 0.5 ml using the buffer solution 50mM Tris, pH 7.5, 5mM MgCl2, 1mM DTT, 8% D2O and 0.001% Triton-X-100; the final volume was of 560 µl. […] The spectra were recorded using the Varian Inova 600 MHz NMR spectrometer operating at a ^19F Larmor frequency of 564 MHz and using a 5mm probe with the inner coil tuned to ^19F and the outer coil tuned to H. The data were recorded without proton decoupling with a spectral width of 12000 Hz, an acquisition time of 0.8s and a relaxation delay of 2.8s. […]
# AKT1 [2] = target: T3, AKT1 (Homo sapiens, UniProt P31749); experiment: Biochemical assay for inhibitors of AKT1 kinase activity (33P trans-phosphorylation, Dowex resin); set-up: GST (N); made in house; settings: 5 nM enzyme, 132 microM ATP, 30 microM peptide substrate, 60 minutes at room temperature
# Experimental: as §1
# The inhibitory activity of putative kinase inhibitors and the potency of selected compounds were determined using a trans-phosphorylation assay.
# A specific substrate was incubated with the kinase in appropriate buffer conditions in the presence of ATP traced with ^33P-γ-ATP (gamma phosphate-labeled, Redivue™
# Code Number AH9968, 1000-3000Ci/mmole, Amersham Biosciences Piscataway, NJ, USA), optimal cofactors and test compound.
# At the end of the phosphorylation reaction, more than 98% cold and radioactive ATP were captured by an excess of Dowex ion exchange resin. The resin was allowed to settle to the bottom of reaction wells by gravity. Supernatant, containing substrate peptide, was subsequently withdrawn and transferred into a counting plate, and radioactivity (corresponding to phosphate incorporated into peptide) was evaluated by β-counting.
# Kinase buffer was composed of 50 mM TRIS pH 7.5 containing10 mM MgCl2, 1 mM DTT, 3 microM Na3VO4, and 0.2 mg/mL BSA. 3X KB is buffer of the same composition and pH as KB, but with three times the concentration of each component. […]
# AKT1 [3] = target: T3, AKT1; experiment: FABS-NMR screening (3-FABS, 19F-labelled AKTide-like substrate) on AKT-1; format: biochemical; set-up: The active human Ser-Thr protein kinase AKT-1 Full Length was expressed as GST fusion protein; GST (cleaved yes); made in house; host or cells: insect cells; settings: 25 nM protein, 30 µM substrate, 1.5 mM ATP; read-out: AKT1 IC50 FABS NMR assay
# Experimental: as §2, §3, §4
# The active human Ser-Thr protein kinase AKT-1 Full Length was expressed as GST fusion protein in insect cells and then the GST was cleaved with PreScission protease.
# as §5
# T3 sequence (P31749 whole entry): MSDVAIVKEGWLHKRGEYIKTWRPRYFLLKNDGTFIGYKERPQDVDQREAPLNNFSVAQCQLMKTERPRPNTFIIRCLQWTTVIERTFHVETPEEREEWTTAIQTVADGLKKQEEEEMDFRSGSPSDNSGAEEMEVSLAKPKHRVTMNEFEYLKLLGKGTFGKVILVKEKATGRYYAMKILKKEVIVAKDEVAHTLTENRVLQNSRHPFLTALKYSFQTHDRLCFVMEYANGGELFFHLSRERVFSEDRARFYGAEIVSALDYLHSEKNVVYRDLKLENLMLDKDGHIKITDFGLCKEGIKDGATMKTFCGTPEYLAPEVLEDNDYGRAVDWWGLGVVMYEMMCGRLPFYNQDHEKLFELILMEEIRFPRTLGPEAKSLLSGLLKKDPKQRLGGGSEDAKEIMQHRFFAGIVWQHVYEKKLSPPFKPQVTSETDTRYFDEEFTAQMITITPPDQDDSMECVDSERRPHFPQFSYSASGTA
# Sequence of AKT3 (Q9Y243 2-479): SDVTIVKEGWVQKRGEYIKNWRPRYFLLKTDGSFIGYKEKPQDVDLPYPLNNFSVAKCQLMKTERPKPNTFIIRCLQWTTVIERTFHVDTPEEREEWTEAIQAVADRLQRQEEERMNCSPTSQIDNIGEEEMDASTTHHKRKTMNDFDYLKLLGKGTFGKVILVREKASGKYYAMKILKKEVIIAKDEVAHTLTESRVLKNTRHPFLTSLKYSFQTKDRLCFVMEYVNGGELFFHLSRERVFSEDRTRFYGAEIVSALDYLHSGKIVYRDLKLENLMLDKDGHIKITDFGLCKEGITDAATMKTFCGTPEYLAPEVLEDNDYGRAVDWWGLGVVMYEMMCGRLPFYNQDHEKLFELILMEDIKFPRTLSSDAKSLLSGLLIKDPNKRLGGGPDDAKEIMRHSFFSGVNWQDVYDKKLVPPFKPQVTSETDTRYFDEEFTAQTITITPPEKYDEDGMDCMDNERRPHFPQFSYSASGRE
# T1 sequence (P31751 whole entry, species assumed): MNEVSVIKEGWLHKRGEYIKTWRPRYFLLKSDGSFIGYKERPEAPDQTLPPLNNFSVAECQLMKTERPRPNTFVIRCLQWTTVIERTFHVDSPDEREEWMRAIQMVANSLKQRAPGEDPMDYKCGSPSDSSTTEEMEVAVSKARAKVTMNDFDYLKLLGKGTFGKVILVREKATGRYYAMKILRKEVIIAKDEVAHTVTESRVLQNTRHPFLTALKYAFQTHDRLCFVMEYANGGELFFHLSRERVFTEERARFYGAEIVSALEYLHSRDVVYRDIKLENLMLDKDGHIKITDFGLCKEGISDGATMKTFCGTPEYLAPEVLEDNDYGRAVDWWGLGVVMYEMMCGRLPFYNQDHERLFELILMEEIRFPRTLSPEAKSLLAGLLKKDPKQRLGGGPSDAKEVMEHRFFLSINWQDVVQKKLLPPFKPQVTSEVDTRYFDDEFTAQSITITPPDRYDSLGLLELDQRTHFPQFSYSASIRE
Structure (SMILES),IC50 (AKT3) [nM],IC50 [1] [nM],IC50 (AKT2) [nM],IC50 (PKAα) [nM],IC50 (AKT1 [2]) [nM],IC50 (AKT1 [3]) [nM],"IC50 (AKT3; 1 nM enzyme, 180 microM ATP, 28.5 microM peptide substrate, read-out: AKT3 IC50 Biochemical assay) [nM]"
"NC[C@H](Cc1ccccc1)NC(=O)/C=C/c1n[nH]c2ncccc12 [Compound 1, (E)-N-((S)-2-amino-1benzyl-ethyl)-3-(1H-pyrazolo[3,4-b]pyridin-3-yl)acrylamide tris(trifluoroacetate)]",19,1350,92,25,17,62,–
"CN1CCN(C[C@@H](NC(=O)/C(=C/c2n[nH]c3ncccc23)c2cn(C)c3ccc(Br)cc23)c2ccccc2)CC1 [Compound 10, (2E)-2-(5-bromo-1-methyl-1H-indol-3-yl)-N-[(1S)-2-(4-methylpiperazin-1-yl)-1-phenylethyl]-3-(1H-pyrazolo[3,4-b]pyridin-3-yl)acrylamide]",–,16000,786,1900,149,62,108
